Measured values reported in PMC11272826, “Metabolism of alcohol ethoxylates (AEs) in rat, hamster, and human hepatocytes and liver S9: a pilot study for metabolic stability, metabolic pathway, and metabolites identification in vitro and in silico” (Archives of Toxicology, 2024).

Columns and labels:
[1] = Metabolic stability in cryopreserved hepatocytes (disappearance, half-life, CLint); conditions: Syrian, hamster, pooled cryopreserved hepatocytes, pH 7.4
Protocol: (§2) The metabolic stability assay was performed in a 48-well plate format (duplicate with cells and single without cells).
(§3) The hepatocytes were thawed and re-suspended in Celsis InVitro KHB medium (pH 7.4). […] The samples were collected and stored at − 20 °C for further analysis.
(§4) The UPLC-Q-Exactive Orbitrap MS system consisted of a Thermo Vanquish Horizon UHPLC with an autosampler, vacuum degasser, photodiode array (PDA) detector (210–500 nm), and column oven coupled to a Q-Exactive Orbitrap Focus mass spectrometer (Thermo Fisher Scientific, Waltham, MA, USA). The analytical column used was a Waters Acquity BEH C8 2.1 × 50 mm with 1.7 particle size (Waters Corp, Milford, MA, USA). The temperature of the column oven was 40 °C, and the injection volume was 4 μl. The aqueous eluent (A) was 0.1% formic acid (B) was acetonitrile. […] The eluent flow rate was 0.5 ml/min and the flow was directed to the MS through a PDA detector. The data acquisition was performed using positive Electrospray Ionization (ESI+) polarity with a capillary voltage of 3000 V. Capillary temperature was 320 °C and auxiliary gas temperature was 500 °C. The mass spectrometer was operated in the data-dependent MS2 mode, which acquires full-scan MS and MS/MS fragment ion data in the same run. Scan was performed with a resolution of 35,000 (full width at half maximum at m/z 200), while an Automated Gain Control target of a million ions, maximum injection time of 100 ms, and a scan range of 100–1000 m/z were used. […] Nitrogen was used as a sheath gas with 50 units, auxiliary gas with 10 units and as a sweep gas with 5 units. Ion chromatograms were extracted from the total ion chromatograms using calculated monoisotopic accurate masses with 5 mDa window. Calibration curves were generated using an external standard. The data were processed with Thermo Xcalibur 4.1.31.9 software.
(§5) The first-order rate constants k (min^−1) of the metabolism were obtained from the slope of time versus ln (% remaining) plots using Excel software. All time points (log-scale) were used in fitting the rate constant k based on visual inspection of the curves.
(§6) The in vitro half-life (t1/2) of the test compound(s) is defined as: t1/2=ln2/k
(§7) CLint,inc = k*V/(M), where V is the volume of the incubation and M is the number of cells or amount of S9 protein in the incubation.

[2] = system: hamster hepatocytes; experiment: as above; conditions: hamster hepatocytes; for Initial concentration remaining after 120 min incubation: range over 1 and 10 µM
Protocol: as §2, §3, §4, §5, §6, §7

[3] = system: rat hepatocytes; experiment: Metabolite profiling by LC-MS in hepatocytes; conditions: for Percentage of the total peak area, Hepatocytes, Rat: 120 min; for Number of metabolites detected: rat hepatocytes
Protocol: as §3
(§8) The in vitro metabolism of the five individual homologue AEs (i.e. C8EO4, C10EO5, C12EO4, C16EO8, and C18EO3) was analyzed by liquid chromatography–mass spectrometry (LC–MS). The UPLC-Q-Exactive Orbitrap MS system consisted of a Thermo Vanquish Horizon UHPLC with an autosampler, vacuum degasser, photodiode array (PDA) detector (210–500 nm), and column oven coupled to a Q-Exactive Orbitrap Focus mass spectrometer (Thermo Fisher Scientific, Waltham, MA, USA). The analytical column used was a Waters Acquity BEH C8 2.1 × 50 mm with 1.7 particle size (Waters Corp, Milford, MA, USA). The temperature of the column oven was 40 °C, and the injection volume was 4 μl. The aqueous eluent (A) was 0.1% formic acid (B) was acetonitrile. […] The eluent flow rate was 0.5 ml/min and the flow was directed to the MS through a PDA detector. The data acquisition was performed using positive Electrospray Ionization (ESI+) polarity with a capillary voltage of 3000 V. Capillary temperature was 320 °C and auxiliary gas temperature was 500 °C. The mass spectrometer was operated in the data-dependent MS2 mode, which acquires full-scan MS and MS/MS fragment ion data in the same run. Scan was performed with a resolution of 35,000 (full width at half maximum at m/z 200), while an Automated Gain Control target of a million ions, maximum injection time of 100 ms, and a scan range of 100–1000 m/z were used. […] Nitrogen was used as a sheath gas with 50 units, auxiliary gas with 10 units and as a sweep gas with 5 units. Ion chromatograms were extracted from the total ion chromatograms using calculated monoisotopic accurate masses with 5 mDa window. Calibration curves were generated using an external standard. The data were processed with Thermo Xcalibur 4.1.31.9 software.

[4] = Metabolite profiling by LC-MS in buffer (incubation without cells); conditions: 120 min
Protocol: as §3, §8

[5] = Metabolite profiling by LC-MS in liver S9
Source text: (§1) Calibration curves were generated using an external standard.

[6] = system: rat hepatocytes; experiment: Metabolic stability in cryopreserved hepatocytes (disappearance, half-life, CLint); conditions: rat hepatocytes; for Initial concentration remaining after 120 min incubation: range over 1 and 10 µM
Protocol: as §2, §3, §4, §5, §6, §7

[7] = as above; conditions: Sprague Dawley, rat, pooled cryopreserved hepatocytes, pH 7.4
Protocol: as §2, §3, §4, §5, §6, §7

[8] = as above; conditions: human, pooled cryopreserved hepatocytes, pH 7.4
Protocol: as §2, §3, §4, §5, §6, §7

[9] = system: human hepatocytes; experiment: as above; conditions: human hepatocytes; for Initial concentration remaining after 120 min incubation: range over 1 and 10 µM
Protocol: as §2, §3, §4, §5, §6, §7

[10] = system: human hepatocytes; experiment: Metabolite profiling by LC-MS in hepatocytes; conditions: for Number of metabolites detected: human hepatocytes; for Percentage of the total peak area, Hepatocytes, Human: 120 min
Protocol: as §3, §8

[11] = Metabolic stability in liver S9 fraction (disappearance, half-life, CLint); conditions: for Initial concentration remaining after 60 min incubation: human liver S9, range over 1 and 10 µM; for microsomal CLint at 1 µM / microsomal CLint at 10 µM / half-life at 1 µM / half-life at 10 µM: human; for microsomal CLint at 1 µM / microsomal CLint at 10 µM: pooled liver S9, pH 7.4; for half-life at 1 µM: pooled liver S9, pH 7.4, Half-lives t1/2, Liver S9, 1 μM; for half-life at 10 µM: pooled liver S9, pH 7.4, Half-lives t1/2, Liver S9, 10 μM
[12] = as above; conditions: for half-life at 1 µM / half-life at 10 µM / microsomal CLint at 1 µM / microsomal CLint at 10 µM: pooled liver S9, pH 7.4; for Relative LC/MS peak area: with cofactors, 60 min
Protocol: as §1
Intrinsic in vitro clearance was calculated as follows: […]

[13] = system: hamster hepatocytes; experiment: Metabolite profiling by LC-MS in hepatocytes; conditions: for Number of metabolites detected: hamster hepatocytes; for Percentage of the total peak area, Hepatocytes, Hamster: 120 min
Protocol: as §3, §8

[14] = system: female Colworth Wistar rats; set-up: method as in Unilever [1978]; conditions: 14C-labelled, oral, rat, ref Unilever [1978], cited from earlier work
[15] = metabolite profile of C8EO4, 10 µM incubation
[16] = hamster liver S9, range over 1 and 10 µM
[17] = rat liver S9, range over 1 and 10 µM
[18] = metabolite profile of C10EO5, 10 µM incubation
[19] = metabolite profile of C10EO5, 10 µM incubation, 60 min
[20] = metabolite profile of C12EO4, 10 µM incubation
[21] = metabolite profile of C12EO4, 10 µM incubation, 60 min

SMILES	half-life at 1 µM [1] [min]	half-life at 10 µM [1] [min]	Initial concentration remaining after 120 min incubation [2]	Number of metabolites detected [3]	Number of metabolites detected ([5]; human liver S9)	Initial concentration remaining after 120 min incubation [6]	half-life at 1 µM [7] [min]	half-life at 10 µM [7] [min]	half-life at 1 µM [8] [min]	half-life at 10 µM [8] [min]	Initial concentration remaining after 120 min incubation [9]	Number of metabolites detected [10]	microsomal CLint at 10 µM [11] [µL/min/mg]	half-life at 10 µM [11] [min]	half-life at 1 µM ([12]; Sprague-Dawley, rat) [min]	half-life at 10 µM ([12]; Sprague-Dawley, rat) [min]	microsomal CLint at 1 µM ([12]; Sprague-Dawley, rat) [µL/min/mg]	microsomal CLint at 10 µM ([12]; Sprague-Dawley, rat) [µL/min/mg]	half-life at 10 µM ([12]; Syrian, hamster) [min]	microsomal CLint at 10 µM ([12]; Syrian, hamster) [µL/min/mg]	other results
CCCCCCCCOCCOCCOCCOCCO [C8EO4]	4.3	6.5	0.1–3%	20	17	0.1–3%	3.2	3.6	12.9	12	0.1–3%	21	33.6	13.8	37.8	58.1	12.2	7.95	14.5	31.8	Percentage of the total peak area, Hepatocytes, Rat [3, 15]: 0.1%; Percentage of the total peak area, Hepatocytes, Buffer ([4]; metabolite profile of C8EO4, 10 µM incubation without cells): 99.8%; Number of metabolites detected ([5]; hamster liver S9): 20; Number of metabolites detected ([5]; rat liver S9): 16; Percentage of the total peak area, Hepatocytes, Human [10, 15]: 0.1%; Initial concentration remaining after 60 min incubation [11]: 1–6%; microsomal CLint at 1 µM [11]: 39.2 µL/min/mg; half-life at 1 µM [11]: 11.8 min; half-life at 1 µM ([12]; Syrian, hamster): 7.7 min; microsomal CLint at 1 µM ([12]; Syrian, hamster): 59.7 µL/min/mg; Initial concentration remaining after 60 min incubation [12, 16]: 1–6%; Initial concentration remaining after 60 min incubation [12, 17]: 34–49%; Number of metabolites detected [13]: 22; Percentage of the total peak area, Hepatocytes, Hamster [13, 15]: 0.1%
CCCCCCCCCCOCCOCCOCCOCCOCCO [C10EO5]	4.5	10.6	0.2–4%	28	26	0.2–4%	2.9	1.9	4	4.9	0.2–4%	28	170	2.7	8.3	12	55.7	38	12	40	Percentage of the total peak area, Hepatocytes, Rat [3, 18]: 0.8%; Percentage of the total peak area, Hepatocytes, Buffer ([4]; metabolite profile of C10EO5, 10 µM incubation without cells): 98.7%; Percentage of the total peak area, Liver S9 without cofactors, Hamster [5, 19]: 97.9%; Percentage of the total peak area, Liver S9 without cofactors, Human [5, 19]: 97.7%; Percentage of the total peak area, Liver S9 without cofactors, Rat [5, 19]: 98.2%; Percentage of the total peak area, Hepatocytes, Human [10, 18]: 0.3%; Initial concentration remaining after 60 min incubation [11]: 0.01–4%; microsomal CLint at 1 µM [11]: 234 µL/min/mg; half-life at 1 µM [11]: 2 min; half-life at 1 µM ([12]; Syrian, hamster): 8.1 min; microsomal CLint at 1 µM ([12]; Syrian, hamster): 57.3 µL/min/mg; Initial concentration remaining after 60 min incubation [12, 16]: 0.01–4%; Initial concentration remaining after 60 min incubation [12, 17]: 0.01–4%; Number of metabolites detected [13]: 28; Percentage of the total peak area, Hepatocytes, Hamster [13, 18]: 0.7%
CCCCCCCCCCCCOCCOCCOCCO [C12EO3]	–	–	–	–	–	–	–	–	–	–	–	–	–	–	–	–	–	–	–	–	Total recovery in urine, feces, air, and carcass of the administered compound ([14]; 4 days): ~100%; 14C in air [14]: about 10%
CCCCCCCCCCCCOCCOCCOCCOCCO [C12EO4]	789	17	–	–	–	–	–	8.9	–	15	–	28	51.2	9	26	11	17.5	40.7	26	17.9	Relative LC/MS peak area ([2]; 10 μM, 120 min): 11%; Percentage of the total peak area, Hepatocytes, Rat [3, 20]: 12.7%; Percentage of the total peak area, Hepatocytes, Buffer ([4]; metabolite profile of C12EO4, 10 µM incubation without cells): 79.1%; Percentage of the total peak area, Liver S9 with cofactors, Hamster [5, 21]: 18.1%; Percentage of the total peak area, Liver S9 with cofactors, Human [5, 21]: 2.1%; Percentage of the total peak area, Liver S9 with cofactors, Rat [5, 21]: 2.0%; Percentage of the total peak area, Liver S9 without cofactors, Hamster [5, 21]: 98.4%; Percentage of the total peak area, Liver S9 without cofactors, Human [5, 21]: 98.8%; Percentage of the total peak area, Liver S9 without cofactors, Rat [5, 21]: 99.7%; Relative LC/MS peak area ([6]; 10 μM, 120 min): 12%; Relative LC/MS peak area ([9]; 10 μM, 120 min): 40%; Percentage of the total peak area, Hepatocytes, Human [10, 20]: 12.5%; Relative LC/MS peak area ([11]; human liver S9, 10 μM, with cofactors, 60 min): 3%; Relative LC/MS peak area ([12]; hamster liver S9, 10 μM): 24%; Relative LC/MS peak area ([12]; rat liver S9, 10 μM): 3%; Percentage of the total peak area, Hepatocytes, Hamster [13, 20]: 13.2%
